Assay results reported in PMC3858267, “The Enhanced In Vivo Activity of the Combination of a MEK and a PI3K Inhibitor Correlates with [^18F]-FLT PET in Human Colorectal Cancer Xenograft Tumour-Bearing Mice” (PLoS ONE, 2013).
Like-named read-outs stand apart in the source and are kept apart here. Marks after values point to notes of the source that are not given here.

Assays:
[1] = tested on: HCT116 human tumour xenografts; assay: Anti-tumour activity (time to RTV3/RTV4) in HCT116 human tumour xenografts; format: in vivo, mice; conditions: 1 mg/kg PD 0325901, 100 mg/kg GDC-0941, alone or in combination, p.o. once daily for 14 days
Procedure: (§1) Animal studies were all carried out using female athymic CD1 nude mice (Charles River, Kent, UK), implanted with HCT116 or HT29 xenografts (1×10^7 cells in 50 µl media injected subcutaneously into the right flank), maintained and handled in isolators under specific pathogen-free conditions.

[2] = tested on: phospho-p44/42 MAPK (Thr202/Tyr204) (ERK1/2); assay: PD Western blot of HCT116 tumour lysates: ERK1/2 phosphorylation; format: in vivo, mice
Procedure: (§2) Blood was collected into heparinised tubes, and plasma was separated and stored at −20°C until analysed. Tumours were removed, snap frozen in liquid nitrogen and stored at −80°C prior to PK and PD analyses, as described below.
For PD analyses, tumours (2 to 4∼2.5 mm^3 pieces) were disaggregated in 1 ml PhosphoSafe™ extraction reagent (Merck Chemicals Ltd, Nottingham, Nottinghamshire, UK) containing a protease inhibitor cocktail (Pierce, Thermo Scientific, Rockford, Illinois, USA) at the manufacturer's recommended dilution using a Medimachine™ (BD Biosciences, Oxford, UK), centrifuged, and the supernatant removed and analysed by Western blotting. Proteins were resolved on Novex® 4–12% (w/w) Tris-glycine gels (Invitrogen Ltd, Renfrew, Paisley, UK) and electrotransferred onto Hybond C nitrocellulose membrane (GE Healthcare Life Sciences, Hatfield, Hertfordshire, UK). Membranes were incubated with phospho-4EBP1 (Thr37/46) (#2855), phospho-p44/42 MAPK (Thr202/Tyr204) (#4370), phospho-Akt (Ser473) (#4060) or phospho-S6 ribosomal protein (Ser235/236) (#4858) monoclonal antibodies obtained from Cell Signalling Technology (New England BioLabs (UK) Ltd, Hitchin, Hertfordshire, UK). Antibody binding was detected by incubation with a HRP-conjugated goat anti-rabbit polyclonal antibody (Dako, Glastrop, Denmark). Blots were developed using Pierce ECL (enhanced chemiluminescence) western blotting substrate (Thermo Scientific, Rockford, Illinois, USA), or SuperSignal® West Dura extended duration substrate (Thermo Scientific, Rockford, Illinois, USA), and Kodak X-ray film (Genetic Research Instrumentation Ltd, Braintree, Essex, UK) on a MediPhot 937 film developer (Colenta, Weiner Neustadt, Austria), then digitally scanned.

[3] = tested on: HCT116 cells; set-up: method as in PMID 22415236; conditions: previously determined; read-out: in vitro GI50; cited from earlier work
[4] = tested on: phospho-Akt (Ser473); assay: PD Western blot of HCT116 tumour lysates: AKT phosphorylation; format: in vivo, mice; conditions: 0.25–24 hours after single p.o. dose; 1 mg/kg PD 0325901, 100 mg/kg GDC-0941 or combination (combination compared to single agent PI3K inhibitor)
Procedure: as §2
For PD analyses, tumours (2 to 4∼2.5 mm^3 pieces) were disaggregated in 1 ml PhosphoSafe™ extraction reagent (Merck Chemicals Ltd, Nottingham, Nottinghamshire, UK) containing a protease inhibitor cocktail (Pierce, Thermo Scientific, Rockford, Illinois, USA) at the manufacturer's recommended dilution using a Medimachine™ (BD Biosciences, Oxford, UK), centrifuged, and the supernatant removed and analysed by Western blotting. […] Antibody binding was detected by incubation with a HRP-conjugated goat anti-rabbit polyclonal antibody (Dako, Glastrop, Denmark).

[5] = tested on: phospho-4EBP1 (Thr37/46); assay: PD Western blot of HCT116 tumour lysates: 4EBP1 phosphorylation; format: in vivo, mice; conditions: 0.25–24 hours after single p.o. dose; 1 mg/kg PD 0325901, 100 mg/kg GDC-0941 or combination (combination compared to single agent PI3K inhibitor)
[6] = Single dose PK: plasma and tumour tissue drug concentrations by HPLC in HCT116 xenograft-bearing mice; format: in vivo; conditions: for AUC: po; for AUC / GDC-0941 AUC Tumour / PD 0325901 AUC Tumour: over 24 hours, mean ± SD
Procedure: as §2
For PK analyses, drug was extracted from 60 µl aliquots of samples by protein precipitation with 9 volumes of acetonitrile (MeCN). Samples were centrifuged at 3000g for 5 minutes at 4°C, and 500 µl of the supernatant evaporated to dryness under nitrogen gas at 30°C using a Zymark Evaporator (Caliper Life Sciences Limited, Cheshire, UK). Samples were reconstituted in 100 µl HPLC mobile phase consisting of 40% acetonitrile and 60% (v/v) 0.1% formic acid pH 4.0 (v/v), and 50 µl of the supernatant applied to a 10 cm Xterra Waters 186000436 C18 3.5 µm column (Waters, Hertfordshire, UK) fitted with an in line filter. Compounds were eluted with the above mobile phase at 1 ml/min using a Waters Millennium Chromatography system (Waters, Hertfordshire, UK). Analytes were detected by UV absorbance at 275 and 315 nm, at retention times of 6.8–7.3 and 3.9–4.3 minutes for PD 0325901 and GDC-0941, respectively. For analysis of drug in tumour tissue, tumours were homogenised in 3 volumes of PBS (w/v) and 50 µl aliquots extracted with 9 volumes of MeCN, and centrifuged, evaporated and analysed as described above.

[7] = tested on: HT29 human tumour xenografts; assay: Anti-tumour activity (time to RTV3/RTV4) in HT29 human tumour xenografts; format: in vivo, mice; conditions: 1 mg/kg PD 0325901, 100 mg/kg GDC-0941, alone or in combination, p.o. once daily for 14 days
Procedure: as §1

[8] = tested on: HCT116 human tumour xenografts; assay: [18F]-FLT PET tumour uptake in HCT116 xenografts; format: in vivo, mice; conditions: 1 mg/kg PD 0325901, 100 mg/kg GDC-0941, alone or in combination, p.o. once daily for 2 days
Procedure: Before treatment and after 2 days of treatment as described above, mice bearing HCT116 human tumour xenografts (7–9 mice/group) were anaesthetised, cannulated via their tail vein and placed in the prone position on a custom-made heated bed, which held three mice at once, within a MOSAIC PET scanner (Philips, Eindhoven, NL). [^18F]-FLT was obtained from PETNET (PETNET, Nottingham, UK), and radioactivity levels were measured using a Capintec well counter (Capintec, NJ, USA). Approximately 10 MBq of [^18F]-FLT was administered intravenously and a 1 hour dynamic PET scan was performed, consisting of ten 1 minute, six 5 minute and two 10 minute time frames. Mice were recovered after scanning and continued to receive treatment for the remainder of the study. Data were analysed using Imalytics software (Philips, Aachen, Germany); a 3D region of interest was drawn around the tumour and the standardised uptake value (SUV) was calculated by dividing the tissue concentration (MBq/ml) by the injected dose (MBq)/g body weight. Mean SUV values were then plotted against time, and the area under the curve (AUC) and the percentage change in the area under the curve relative to the baseline scan was calculated.

[9] = set-up: method as in PMID 18754654, PMID 21838594; conditions: in mice; cited from earlier work
[10] = tested on: phospho-S6 ribosomal protein (Ser235/236); assay: PD Western blot of HCT116 tumour lysates: S6 phosphorylation; format: in vivo, mice; conditions: 0.25–24 hours after single p.o. dose; 1 mg/kg PD 0325901, 100 mg/kg GDC-0941 or combination (combination compared to single agent PI3K inhibitor)
[11] = set-up: method as in PMID 20332327; conditions: single agent; such as retinal vein occlusion; cited from earlier work
[12] = rat, in vivo, 100 mg/kg; cited from earlier work
[13] = cited from earlier work
[14] = single p.o. dose 10 mg/kg PD 0325901+10 mg/kg GDC-0941

SMILES: CS(=O)(=O)N1CCN(Cc2cc3nc(-c4cccc5[nH]ncc45)nc(N4CCOCC4)c3s2)CC1 [GDC-0941, 2-(1H-Indazol-4-yl)-6-(4-methanesulfonyl-piperazin-1-ylmethyl)-4-morpholin-4-yl-thieno[3,2-d]pyrimidine]
- Time to RTV3, Mean ± SD [1]: 15 ± 4 days
- Time to RTV3, Median ± IR [1]: 16 ± 5 days
- Time to RTV4, Mean ± SD [1]: 19 ± 5 days
- Time to RTV4, Median ± IR [1]: 18 ± 4 days
- phosphorylation of ERK1/2 in tumour ([2]; 0.25–24 hours after single p.o. dose, 100 mg/kg GDC-0941 alone or with 1 mg/kg PD 0325901 (combination compared to single agent MEK inhibitor)): reduction
- GI50 [3]: 1080 nM
- phosphorylation of AKT in tumour [4]: reduction
- phosphorylation of 4EBP1 in tumour [5]: reduction
- increase in plasma AUC with 10-fold increment in dose ([6]; GDC-0941 100 versus 10 mg/kg): 7 fold
- increase in tumour AUC following a 10-fold increase in dose ([6]; GDC-0941 100 versus 10 mg/kg): 15 fold
- AUC ([6]; mouse, plasma, 10 mg/kg, single p.o. dose 10 mg/kg GDC-0941 alone, read-out: GDC-0941 AUC Plasma (converted)): 5.4 µM·h
- AUC ([6]; mouse, plasma, 10 mg/kg, single p.o. dose 10 mg/kg PD 0325901+10 mg/kg GDC-0941, read-out: GDC-0941 AUC Plasma (converted)): 6.33 µM·h
- AUC ([6]; mouse, plasma, 100 mg/kg, single p.o. dose 100 mg/kg GDC-0941 alone, read-out: GDC-0941 AUC Plasma (converted)): 39.4 µM·h
- AUC ([6]; mouse, plasma, single p.o. dose 1 mg/kg PD 0325901+10 mg/kg GDC-0941, read-out: GDC-0941 AUC Plasma (converted)): 6.55 µM·h
- AUC ([6]; mouse, plasma, single p.o. dose 1 mg/kg PD 0325901+100 mg/kg GDC-0941, read-out: GDC-0941 AUC Plasma (converted)): 22.6 µM·h
- AUC ([6]; mouse, plasma, single p.o. dose 10 mg/kg PD 0325901+100 mg/kg GDC-0941, read-out: GDC-0941 AUC Plasma (converted)): 58.8 µM·h
- GDC-0941 AUC Tumour ([6]; single p.o. dose 1 mg/kg PD 0325901+10 mg/kg GDC-0941): 396±144^j µM.min
- GDC-0941 AUC Tumour ([6]; single p.o. dose 1 mg/kg PD 0325901+100 mg/kg GDC-0941): 3196±183^h µM.min
- GDC-0941 AUC Tumour ([6]; single p.o. dose 10 mg/kg GDC-0941 alone): 364±130^g µM.min
- GDC-0941 AUC Tumour [6, 14]: 124±51^g,j µM.min
- GDC-0941 AUC Tumour ([6]; single p.o. dose 10 mg/kg PD 0325901+100 mg/kg GDC-0941): 2649±861^i µM.min
- GDC-0941 AUC Tumour ([6]; single p.o. dose 100 mg/kg GDC-0941 alone): 5422±962^h,i µM.min
- Time to RTV3, Mean ± SD [7]: 11 ± 9 days
- Time to RTV3, Median ± IR [7]: 10 ± 6 days
- Time to RTV4, Mean ± SD [7]: 13 ± 9 days
- Time to RTV4, Median ± IR [7]: 10 ± 5 days
- decrease in tumour [18F]-FLT uptake (SUV AUC) after 2 days versus baseline [8]: no significant difference
- oral bioavailability [9]: 78%
- phosphorylation of S6 in tumour [10]: reduction

SMILES: O=C(NOC[C@H](O)CO)c1ccc(F)c(F)c1Nc1ccc(I)cc1F [PD 0325901]
- Time to RTV3, Mean ± SD [1]: 19 ± 7 days
- Time to RTV3, Median ± IR [1]: 18 ± 12 days
- Time to RTV4, Mean ± SD [1]: 23 ± 8 days
- Time to RTV4, Median ± IR [1]: 21 ± 11 days
- phosphorylation of ERK1/2 in tumour ([2]; 3 and 6 hours after single p.o. dose of 1 mg/kg PD 0325901): completely ablate
- phosphorylation of ERK1/2 in tumour ([2]; 1 hour after single p.o. dose of 1 mg/kg PD 0325901): reduce
- GI50 [3]: 21 nM
- phosphorylation of AKT in tumour [4]: no marked effect
- toxicity in clinical trials [11]: ocular and neurological toxicity
- phosphorylation of 4EBP1 in tumour [5]: no marked effect
- increase in plasma AUC of PD 0325901 following concomitant dosing with GDC-0941 ([6]; 1 or 10 mg/kg PD 0325901 alone versus with GDC-0941): 2–3 fold
- increase in plasma AUC with 10-fold increment in dose ([6]; PD 0325901 10 versus 1 mg/kg): 15 fold
- tumour tissue level (undetectable, limit of detection) ([6]; all time points after 1 mg/kg PD 0325901, per g of tumour material): < 0.4 nmol/g
- concentration at 24 h ([6]; mouse, plasma, oral, at 24 hours after 1 mg/kg PD 0325901, read-out: plasma level (undetectable, limit of detection)): < 100 nM
- AUC ([6]; mouse, plasma, 1 mg/kg, single p.o. dose 1 mg/kg PD 0325901 alone, read-out: PD 0325901 AUC Plasma (converted)): 1.38 µM·h
- AUC ([6]; mouse, plasma, 10 mg/kg, single p.o. dose 10 mg/kg PD 0325901+10 mg/kg GDC-0941, read-out: PD 0325901 AUC Plasma (converted)): 40 µM·h
- AUC ([6]; mouse, plasma, 10 mg/kg, single p.o. dose 10 mg/kg PD 0325901 alone, read-out: PD 0325901 AUC Plasma (converted)): 21.6 µM·h
- AUC ([6]; mouse, plasma, single p.o. dose 1 mg/kg PD 0325901+10 mg/kg GDC-0941, read-out: PD 0325901 AUC Plasma (converted)): 2.73 µM·h
- AUC ([6]; mouse, plasma, single p.o. dose 1 mg/kg PD 0325901+100 mg/kg GDC-0941, read-out: PD 0325901 AUC Plasma (converted)): 3.15 µM·h
- AUC ([6]; mouse, plasma, single p.o. dose 10 mg/kg PD 0325901+100 mg/kg GDC-0941, read-out: PD 0325901 AUC Plasma (converted)): 54.1 µM·h
- PD 0325901 AUC Tumour [6, 14]: 399±72^d,f µM.min
- PD 0325901 AUC Tumour ([6]; single p.o. dose 10 mg/kg PD 0325901 alone): 1082±232^d,e µM.min
- toxicity of oral and i.v. doses [12]: non-toxic
- Time to RTV3, Mean ± SD [7]: 10 ± 4 days
- Time to RTV3, Median ± IR [7]: 10 ± 4 days
- Time to RTV4, Mean ± SD [7]: 11 ± 4 days
- Time to RTV4, Median ± IR [7]: 11 ± 3 days
- decrease in tumour [18F]-FLT uptake (SUV AUC) after 2 days versus baseline [8]: no significant difference
- phosphorylation of S6 in tumour [10]: no marked effect
- maximum tolerated dose [13]: 25 mg/kg
